Measurements from ChEMBL document CHEMBL4834391, “Role of Ascaridole and p-Cymene in the Sleep-Promoting Effects of Dysphania ambrosioides Essential Oil via the GABAergic System in a ddY Mouse Inhalation Model” (J Nat Prod, 2021).
The source made the active and inactive calls. The rule behind the calls is not given here.

Legend:
Mus musculus [1] = species on record: Mus musculus; assay: Myorelaxant effect in ddY mouse assessed as decrease in endurance latency time by rota-rod test; type: functional, organism-based
[2] = Sedative activity in ddY mouse assessed as decrease in spontaneous locomotor activity at 0.04 mg administered via inhalation relative to control; set-up: scale not given: the % may be the effect or the level left; conditions: in vivo, inhaled_or_intranasal
[3] = Sedative activity in ddY mouse assessed as decrease in spontaneous locomotor activity at 0.0004 mg administered via inhalation relative to control; set-up: scale not given: the % may be the effect or the level left; conditions: in vivo, inhaled_or_intranasal
[4] = Sedative activity in ddY mouse assessed as decrease in spontaneous locomotor activity at 0.00004 mg administered via inhalation relative to control; set-up: scale not given: the % may be the effect or the level left; conditions: in vivo, inhaled_or_intranasal, at 40 ng
Mus musculus [5] = assay: Sleep-promoting activity in ddY mouse assessed as enhancement of pentobarbital-induced sleep resulting in prolonged sleeping time at 0.004 mg administered via inhalation relative to control; type: functional
[6] = Sedative activity in ddY mouse assessed as decrease in spontaneous locomotor activity when administered via inhalation relative to control; set-up: scale not given: the % may be the effect or the level left; conditions: in vivo, inhaled_or_intranasal
[7] = Sedative activity in ddY mouse assessed as decrease in caffeine-induced spontaneous locomotor activity at 0.004 mg administered via inhalation post caffeine stimulation (reference value: 68 %); set-up: scale not given: the % may be the effect or the level left; conditions: in vivo, inhaled_or_intranasal
Mus musculus [8] = assay: Myorelaxant effect in ddY mouse assessed as decrease in endurance latency time at 0.004 mg administered via inhalation by rota-rod test; type: functional, organism-based
[9] = Sedative activity in ddY mouse assessed as decrease in spontaneous locomotor activity at 0.004 mg administered via inhalation relative to control; set-up: scale not given: the % may be the effect or the level left; conditions: in vivo, inhaled_or_intranasal
[10] = Toxicity in mouse assessed as lethal dose; conditions: in vivo
[11] = Sedative activity in ddY mouse assessed as decrease in spontaneous locomotor activity at 0.4 mg administered via inhalation relative to control; set-up: scale not given: the % may be the effect or the level left; conditions: in vivo, inhaled_or_intranasal
Mus musculus [12] = assay: Sleep-promoting activity in ddY mouse assessed as enhancement of pentobarbital-induced sleep resulting in prolonged sleeping time at 0.000004 mg administered via inhalation relative to control; type: functional; conditions: dose 4 ng
Mus musculus [13] = assay: Myorelaxant effect in ddY mouse assessed as decrease in endurance latency time at 0.000004 mg administered via inhalation by rota-rod test; type: functional, organism-based; conditions: dose 4 ng
[14] = Sedative activity in ddY mouse assessed as decrease in caffeine-induced spontaneous locomotor activity at 0.000004 mg administered via inhalation post caffeine stimulation (reference value: 68 %); set-up: scale not given: the % may be the effect or the level left; conditions: in vivo, inhaled_or_intranasal, at 4 ng
Mus musculus [15] = assay: Sleep-promoting activity in ddY mouse assessed as decrease in pentobarbital-induced sleep ing duration at 3 mg/kg relative to control; type: functional; set-up: scale not given: the % may be the effect or the level left

SMILES | Activity (Mus musculus [1]) | Activity [2] | Activity [3] | Activity [4] | Activity (Mus musculus [5]) | Activity [6] | Activity [7] | Activity (Mus musculus [8]) | Activity [9] | LD50 [10] | Activity [11] | Activity (Mus musculus [12]) | Activity (Mus musculus [13]) | Activity [14] | Activity (Mus musculus [15])
CN1C(=O)CN=C(c2ccccc2)c2cc(Cl)ccc21 | Active | – | – | – | – | – | – | – | – | – | – | – | – | – | –
CC(C)C12C=CC(C)(CC1)OO2 (configuration not stated) [ASCARIDOLE] | – | 64% | 52% | 64% | 42% | 56% | 47% | inactive | 67% | 400 mg/kg | 56% | – | – | – | –
Cc1ccc(C(C)C)cc1 [P-CYMENE] | – | 67% | 57% | 69% | – | 63% | – | – | 61% | 4750 mg/kg | 68% | 77% | inactive | 50% | –
CCOC(=O)c1ncn2c1CN(C)C(=O)c1cc(F)ccc1-2 [FLUMAZENIL] | – | – | – | – | – | – | – | – | – | – | – | – | – | – | 31%
